From paper PMC12892976, “Alkylation-based optimization of antifungal FPPS inhibitors yields a potent, broad-spectrum lipophilic zoledronate derivative” (mBio, 2025)

Legend:
[1] = test system: Cryptococcus neoformans; assay: checkerboard drug interaction (FICI, MICc); assay type: cell-based;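 also: antifungal plus FPPS inhibitor pairs tested against Cryptococcus neoformans by simplified diagonal checkerboard screening, FICI computed under the Loewe additivity model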
Method: (§1) Drug interactions between antifungals and FPPS inhibitors were investigated using a simplified checkerboard diagonal screening method ([45]). […] FICIs were determined according to the Loewe additivity model ([17]).

[2] = test system: Saccharomyces cerevisiae; assay: MIC/MFC broth microdilution (CLSI); assay type: cell-based; conditions: Saccharomyces cerevisiae S288c
Method: (§2) Antifungal susceptibility was determined by broth microdilution according to the CLSI guidelines described in M27-Ed4 ([16]). […] MFC was determined by back-plating drug-treated cultures from MIC broths onto SDA plates. The MFC was defined as the lowest concentration from which no colonies could be cultured.

[3] = test system: Candida glabrata; assay: checkerboard drug interaction (FICI, MICc);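 as to all read-outs here: simplified diagonal checkerboard screen pairing antifungals with FPPS inhibitors, FICI calculated under the Loewe additivity model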; assay type: cell-based; conditions: for INH MICc: C. glabrata
Method: as §1

[4] = test system: Aspergillus flavus; assay: MIC/MFC broth microdilution (CLSI); conditions: ATCC204304
Method: as §2

[5] = test system: Aspergillus flavus; assay: checkerboard drug interaction (FICI, MICc); assay type: cell-based; parameters: INH MICc (KET:INH) / INH MICc (FLC:INH): unit not given beside the values;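 also: simplified diagonal checkerboard screen pairing azole antifungals with FPPS inhibitors, FICI calculated under the Loewe additivity model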
[6] = test system: Cryptococcus deuterogattii; assay: checkerboard drug interaction (FICI, MICc);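 as to all read-outs here: simplified diagonal checkerboard screen pairing antifungal drugs with FPPS inhibitors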; assay type: cell-based; conditions: for INH MICc: C. deuterogattii
Method: as §1

[7] = test system: Cryptococcus neoformans; assay: MIC/MFC broth microdilution (CLSI);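 also: susceptibility testing followed the CLSI M27-Ed4 broth microdilution document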
Method: as §2

[8] = test system: Fusarium oxysporum; assay: checkerboard drug interaction (FICI, MICc); assay type: cell-based;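 also: simplified diagonal checkerboard screen pairing antifungals with FPPS inhibitors, FICI calculated under the Loewe additivity model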
Method: as §1

[9] = test system: eight fungal species; assay: checkerboard interaction with azoles, summary across the eight species; assay type: cell-based
From the text: Synergy between lipophilic FPPS inhibitors and azole antifungals was investigated by determining the fractional inhibitory concentration index (FICI) (Fig. 2; Table S1 Fig. S1) ([17]). […]. Derivatives PLA9 and 11, and PDA9, 11, and 12 antagonized azoles in C. albicans, C. neoformans, and C. deuterogattii, yet were largely synergistic in C. glabrata and S. cerevisiae. […].

[10] = test system: Trichophyton rubrum; assay: checkerboard drug interaction (FICI, MICc); assay type: cell-based;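 also: simplified diagonal checkerboard screen pairing azole antifungals with FPPS inhibitors, FICI calculated under the Loewe additivity model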
Method: as §1

[11] = FLC:INH combination, MIC of the inhibitor in combination with FLC
[12] = ITR:INH combination, MIC of the inhibitor in combination with ITR
[13] = KET:INH combination, MIC of the inhibitor in combination with KET

CCCCCCCCCCn1cc[n+](CC(O)(P(=O)(O)O)P(=O)(O)O)c1 [10-ZOL, Decyl-zoledronate]
bisphosphonate MICc ([1]; with ITR): 0.063
bisphosphonate MICc ([1]; with KET): 0.063
bisphosphonate MICc ([1]; with VOR): 0.25
MFC [2]: 8 µg/mL
MIC [2]: 1 µg/mL
MIC / MEC [2]: 1 µg/mL
INH MICc [3, 11]: 0.125
INH MICc [3, 12]: 0.063
INH MICc [3, 13]: 0.031
bisphosphonate MICc ([3]; with 5FC): 0.125
bisphosphonate MICc ([3]; with AMB): 0.25
bisphosphonate MICc ([3]; with CAS): 0.25
bisphosphonate MICc ([3]; with FLC): 0.125
bisphosphonate MICc ([3]; with ITR): 0.063
bisphosphonate MICc ([3]; with KET): 0.031
bisphosphonate MICc ([3]; with VOR): 0.03125
MFC [4]: 4 µg/mL
MIC [4]: 2 µg/mL
MIC / MEC [4]: 2 µg/mL
INH MICc (FLC:INH) ([5]; A. flavus, MIC of the inhibitor in combination with fluconazole): 0.063
INH MICc (ITR:INH) ([5]; A. flavus, MIC of the inhibitor in combination with itraconazole): 0.125
INH MICc (KET:INH) ([5]; A. flavus, MIC of the inhibitor in combination with ketoconazole): 0.125
FICI ([5]; AMB:10-ZOL): 2
FICI ([5]; FLC:10-ZOL): 0.53
FICI ([5]; VOR:10-ZOL): 0.37
bisphosphonate MICc ([5]; with 5FC): 1
bisphosphonate MICc ([5]; with AMB): 2
bisphosphonate MICc ([5]; with CAS): 2
bisphosphonate MICc ([5]; with FLC): 0.063
FICI ([5]; with FLC, Aspergillus flavus): 0.53
bisphosphonate MICc ([5]; with ITR): 0.125
bisphosphonate MICc ([5]; with KET): 0.125
bisphosphonate MICc ([5]; with VOR): 0.5
INH MICc [6, 11]: 0.125
INH MICc [6, 12]: 0.125
INH MICc [6, 13]: 0.063
bisphosphonate MICc ([6]; with 5FC): 1
bisphosphonate MICc ([6]; with AMB): 0.063
bisphosphonate MICc ([6]; with CAS): 1
bisphosphonate MICc ([6]; with FLC): 0.125
bisphosphonate MICc ([6]; with ITR): 0.125
bisphosphonate MICc ([6]; with KET): 0.063
bisphosphonate MICc ([6]; with VOR): 0.063
MFC ([7]; Cryptococcus neoformans): 2 µg/mL
MIC ([7]; Cryptococcus neoformans): 1 µg/mL
MIC / MEC ([7]; Cryptococcus neoformans H99): 0.5 µg/mL
FICI ([8]; 5FC:10-ZOL): ≥4
FICI ([8]; AMB:10-ZOL): 1.03
FICI ([8]; CAS:10-ZOL): ≥4
FICI ([8]; VOR:10-ZOL): 0.5
bisphosphonate MICc ([8]; with 5FC): 4
bisphosphonate MICc ([8]; with AMB): 0.25
bisphosphonate MICc ([8]; with CAS): 1
bisphosphonate MICc ([8]; with FLC): 1
bisphosphonate MICc ([8]; with ITR): 1
bisphosphonate MICc ([8]; with KET): 1
bisphosphonate MICc ([8]; with VOR): 2
effect on azole MIC in combination ([9]; across all species tested): consistently reduced the MIC of the azole
antagonism with azole drugs ([9]; any of the azole drugs in any species tested): no antagonism
GM fungal MICc ([9]; geometric mean MIC in combination with azoles): 0.1
FICI ([10]; KET:10-ZOL): 0.5
INH MICc (FLC:INH) ([10]; T. rubrum, MIC of the inhibitor in combination with fluconazole): 0.5
INH MICc (ITR:INH) ([10]; T. rubrum, MIC of the inhibitor in combination with itraconazole): 0.5
INH MICc (KET:INH) ([10]; T. rubrum, MIC of the inhibitor in combination with ketoconazole): 0.5
FICI ([10]; VOR:10-ZOL): 0.5
bisphosphonate MICc ([10]; with 5FC): 1
bisphosphonate MICc ([10]; with AMB): 0.25
bisphosphonate MICc ([10]; with CAS): 0.5
bisphosphonate MICc ([10]; with FLC): 0.5
bisphosphonate MICc ([10]; with ITR): 0.5
bisphosphonate MICc ([10]; with KET): 0.5
bisphosphonate MICc ([10]; with VOR): 0.5
